Results reported in US8796279B2, “4′-demethylepipodophyllotoxin derivative, preparation method and use thereof” (Hubei University of Technology, priority 2010, dated 2014).
Read-outs that look alike come from different tables or passages of the source.

What was measured:
[1] = system: human gastric cancer cell strain BGC-823; test: BGC-823 tumor cell growth inhibition, MTT method; format: cell-based; conditions: read-out: half growth inhibition concentration (IC50)
[2] = system: human pulmonary cancer cell strain A549; test: A549 tumor cell growth inhibition, MTT method; conditions: read-out: half growth inhibition concentration (IC50)
[3] = system: HepG2 tumor cell strain; test: HepG2 tumor cell growth inhibition, MTT method; conditions: for IC50: Homo sapiens, HepG2, 48 h, read-out: half growth inhibition concentration (IC50)
[4] = HK-2 normal cell growth inhibition (cell toxicity), MTT method; format: cell-based, human; conditions: human, HK-2 cells (proximal tubule); HK-2 normal cells, MTT, 48 h; read-out: half growth inhibition concentration (IC50), cell toxicity
[5] = system: human proximal tubule cell strain HK-2; test: as above; format: cell-based; conditions: HK-2 normal cells, from IC50 values
[6] = Lipid-water partition coefficient test (n-octanol / biological brine, UV)
Description: I mg of each of 4-(2,3,5,6-tetramethylpyrazin-1-yl)-4′-demethylepipodophyllotoxin, 4′-demethylepipodophyllotoxin and podophyllotoxin was respectively dissolved into 3 centrifuge tubes of 10 mL each containing 2 mL n-octanol and 2 mL biological brine, the tubes were capped tight, shook thoroughly for 10 min, and subsequently let stand for 20 min. 0.2 mL of the organic- and water phase were respectively pipetted into clean test tubes. Absorbance (A) values of the organic- and water phase were measured using UV method, respectively, using A to calculate the weights of the drugs dissolved in the organic- and water layer, Walcohol and Wwater, respectively. The operations were repeated 3 times, averages were calculated, lipid-water partition coefficients were calculated using Eq. 1:
[formula] where Walcohol and Wwater denote the measured weights of drugs in n-octanol- and water phase, respectively; Valcohol and Vwater denote volumes of n-octanol- and water phase, respectively. 3. Results

[7] = Homo sapiens, BGC-823 cells, MTT, 48 h

Row | SMILES | IC50 [1, 7] [µM] | IC50 ([2]; Homo sapiens, A549, 48 h) [µM] | IC50 [3] [µM] | IC50 at 48 h [4] [µM] | logP [6] | further results
1 | COc1cc([C@@H]2c3cc4c(cc3[C@@H](O[C@@H]3O[C@@H]5CO[C@@H](C)O[C@H]5[C@H](O)[C@H]3O)[C@H]3COC(=O)[C@H]23)OCO4)cc(OC)c1O [etoposide] | 14 | 165 | 1.06 | – | – | –
2 | COc1cc([C@@H]2c3cc4c(cc3[C@@H]([n+]3c(C)c(C)nc(C)c3C)[C@H]3COC(=O)[C@H]23)OCO4)cc(OC)c1O [4-(2,3,5,6-tetramethylpyrazin-1-yl)-4′-demethylepipodophyllotoxin] | 0.06 | 0.23 | 0.29 | 0.24 | 0.66 | cell toxicity decreased in comparison with podophyllotoxin [5]: ~66 times; lipid water partition coefficient increased than 4′-demethylepipodophyllotoxin ([6]; from logP values): 16%; lipid water partition coefficient increased than podophyllotoxin ([6]; from logP values): 94%; inhibition activity raised in comparison with etoposide ([3]; HepG2 cells, from IC50 values): 2.7 times
3 | COc1cc([C@@H]2c3cc4c(cc3[C@H](O)[C@H]3COC(=O)[C@H]23)OCO4)cc(OC)c1OC [podophyllotoxin] | – | – | – | 0.0035 | 0.34 | IC50 ([1]; Homo sapiens, BGC-823, 48 h): 529 µM
4 | COc1cc([C@@H]2c3cc4c(cc3[C@@H](O)[C@H]3COC(=O)[C@H]23)OCO4)cc(OC)c1O [4′-demethylepipodophyllotoxin] | – | – | – | – | – | IC50 ([1]; BGC-823 cells, MTT, 48 h): 398 µM; IC50 ([2]; A549 cells, MTT, 48 h): 0.45 µM
5 | Cc1nc(C)c(C)nc1C [tetramethylpyrazine] | – | – | – | – | > 5 | lipid-water partition coefficient (logP) [6]: >5
